Measurements taken from US11000033B2, “Ketone or oxime compound, and herbicide” (NISSAN CHEMICAL CORPORATION, priority 2014, dated 2021).

Legend:
Type in all cases: in vivo
[1] = tested on: Lolium multiflorum Lam.; experiment: Test Example 5: herbicidal effect by foliage application, plastic box (symbol K); settings: 320 g/ha, 3 weeks after application
Procedure, shortened: (§1)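 Post-emergence spray; diluvial soil (sterilized), ~1.5 cm seed cover; greenhouse 25–30° C; 14-day-old plants; water-diluted emulsion at predetermined dose; visual score at 3 wk post-treatment.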

[2] = tested on: soybean; experiment: Test Example 4: effect on crop by soil treatment (symbol d); settings: application herbicide amount 320 g/ha
Procedure, shortened: (§2)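 Crop seed is sown in spots together with several weed species in a box of sterilized diluvial soil. It is covered by about 1.5 cm of soil and kept in a greenhouse held between 25° C. and 30° C.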

[3] = tested on: Lolium multiflorum Lam.; experiment: Test Example 4: herbicidal effect by soil treatment (symbol K); settings: application herbicide amount 320 g/ha
Procedure, shortened: (§3)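 Seeds were sown in sterilized diluvial soil, covered with about 1.5 cm of soil, and the soil surface was sprayed with a water-diluted emulsion of the compound at a predetermined rate. Plants grew in a greenhouse at 25° C. to 30° C.; effects were scored visually 3 weeks after application.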

[4] = tested on: rice; experiment: Test Example 4: effect on crop by soil treatment (symbol b); settings: application herbicide amount 320 g/ha
Procedure, shortened: as §2

[5] = tested on: Digitaria ciliaris; experiment: Test Example 5: herbicidal effect by foliage application, plastic box (symbol F); settings: 320 g/ha, 3 weeks after application
Procedure, shortened: as §1

[6] = tested on: Amaranthus retroflexus; experiment: Test Example 5: herbicidal effect by foliage application, plastic box (symbol N); settings: 320 g/ha, 3 weeks after application
Procedure, shortened: as §1

[7] = tested on: Abutilon theophrasti; experiment: Test Example 5: herbicidal effect by foliage application, plastic box (symbol M); settings: 320 g/ha, 3 weeks after application
Procedure, shortened: as §1

[8] = tested on: Monochoria vaginalis; experiment: Test Example 1: herbicidal activity, application before weed generation in submerged conditions (symbol C); settings: application herbicide amount 320 g/ha
Procedure, shortened: (§4)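 In a flooded pot test with alluvial soil, the emulsion-formulated compound was diluted with water to a predetermined amount and applied to the floodwater immediately on the sowing day. Pots were held in a greenhouse at 25–30 °C for 3 weeks before each weed was rated.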

[9] = tested on: Chenopodium album; experiment: Test Example 4: herbicidal effect by soil treatment (symbol O); settings: application herbicide amount 320 g/ha
Procedure, shortened: as §3

[10] = tested on: rice plant; experiment: Test Example 5: effect on crop by foliage application, plastic box (symbol b); settings: 320 g/ha, 3 weeks after application
Procedure, shortened: (§5)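 Sterilized diluvial soil, plastic box (21 × 13 × 7 cm); spot sowing, ~1.5 cm soil cover; greenhouse 25–30° C.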

[11] = tested on: Alopecurus myosuroides; experiment: Test Example 5: herbicidal effect by foliage application, plastic box (symbol J); settings: 320 g/ha, 3 weeks after application
Procedure, shortened: as §1

[12] = tested on: directly sowed rice plant; experiment: Test Example 3: effect on crop by foliage application, Wagner pot (symbol b); settings: application herbicide amount 320 g/ha
Procedure, shortened: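 Wagner pot (1/10000 are), alluvial soil, submerged 0.1–0.5 cm; sown E. crus-galli var. crus-galli, L. chinensis, C. difformis, rice; greenhouse 25–30 °C.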

[13] = tested on: transplanted rice plant; experiment: Test Example 1: effect on crop, application before weed generation in submerged conditions (symbol a); settings: application herbicide amount 320 g/ha
Procedure, shortened: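 Rice at 2.5 leaf stage transplanted into submerged soil (4 cm depth) sown with three weed species; herbicide applied before weed emergence.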

[14] = tested on: Echinochloa crus-galli var. crus-galli; experiment: Test Example 5: herbicidal effect by foliage application, plastic box (symbol H); settings: 320 g/ha, 3 weeks after application
Procedure, shortened: as §1

[15] = tested on: corn; experiment: Test Example 5: effect on crop by foliage application, plastic box (symbol c); settings: 320 g/ha, 3 weeks after application
Procedure, shortened: as §5

[16] = tested on: Echinochloa oryzacola Vasing.; experiment: Test Example 1: herbicidal activity, application before weed generation in submerged conditions (symbol A); settings: application herbicide amount 320 g/ha
Procedure, shortened: as §4

SMILES | K: Lolium multiflorum Lam., herbicidal effect (criteria of Test Example 1) [1] | Effect on crop grade, d: soybean [2] | Herbicidal effect grade, K: Lolium multiflorum Lam. [3] | Effect on crop grade, b: directly sowed rice plant [4] | F: Digitaria ciliaris, herbicidal effect (criteria of Test Example 1) [5] | N: Amaranthus retroflexus, herbicidal effect (criteria of Test Example 1) [6] | M: Abutilon theophrasti, herbicidal effect (criteria of Test Example 1) [7] | Herbicidal effect grade, C: Monochoria vaginalis [8] | Herbicidal effect grade, O: Chenopodium album [9] | b: directly sowed rice plant, effect on crop (criteria of Test Example 1) [10] | J: Alopecurus myosuroides, herbicidal effect (criteria of Test Example 1) [11] | effect on crop b (directly sowed rice plant), grade 0-5 [12] | Effect grade on crop, a: transplanted rice plant [13] | H: Echinochloa crus-galli var. crus-galli, herbicidal effect (criteria of Test Example 1) [14] | c: corn, effect on crop (criteria of Test Example 1) [15] | Herbicidal effect grade, A: Echinochloa oryzacola Vasing. [16]
CON=C(C)CC1CC(O)=C(c2c(C)cc(-c3ccccc3)cc2OC)C1=O (stereo not shown) [6-099] | 5 (Herbicidal ratio of 90% or more (almost completely withered)) | 0 (Herbicidal ratio of 5% or lower (almost no effect)) | 5 (Herbicidal ratio of 90% or more (almost completely withered)) | 5 (Herbicidal ratio of 90% or more (almost completely withered)) | 5 (Herbicidal ratio of 90% or more (almost completely withered)) | 4 (Herbicidal ratio of 70% or higher and lower than 90%) | 3 (Herbicidal ratio of 40% or higher and lower than 70%) | 5 (Herbicidal ratio of 90% or more (almost completely withered)) | 4 (Herbicidal ratio of 70% or higher and lower than 90%) | 5 (Herbicidal ratio of 90% or more (almost completely withered)) | 5 (Herbicidal ratio of 90% or more (almost completely withered)) | 5 (Herbicidal ratio of 90% or more (almost completely withered)) | 5 (Herbicidal ratio of 90% or more (almost completely withered)) | 5 (Herbicidal ratio of 90% or more (almost completely withered)) | 5 (Herbicidal ratio of 90% or more (almost completely withered)) | 5 (Herbicidal ratio of 90% or more (almost completely withered))
CON=C(C)CC1CC(OC(=O)COc2ccccc2)=C(c2c(C)cc(-c3ccccc3)cc2OC)C1=O (stereo not shown) [6-100] | 5 (Herbicidal ratio of 90% or more (almost completely withered)) | 0 (Herbicidal ratio of 5% or lower (almost no effect)) | 5 (Herbicidal ratio of 90% or more (almost completely withered)) | 5 (Herbicidal ratio of 90% or more (almost completely withered)) | 5 (Herbicidal ratio of 90% or more (almost completely withered)) | 4 (Herbicidal ratio of 70% or higher and lower than 90%) | 3 (Herbicidal ratio of 40% or higher and lower than 70%) | 5 (Herbicidal ratio of 90% or more (almost completely withered)) | 5 (Herbicidal ratio of 90% or more (almost completely withered)) | 5 (Herbicidal ratio of 90% or more (almost completely withered)) | 5 (Herbicidal ratio of 90% or more (almost completely withered)) | 5 (Herbicidal ratio of 90% or more (almost completely withered)) | 5 (Herbicidal ratio of 90% or more (almost completely withered)) | 5 (Herbicidal ratio of 90% or more (almost completely withered)) | 5 (Herbicidal ratio of 90% or more (almost completely withered)) | 5 (Herbicidal ratio of 90% or more (almost completely withered))
CON=C(C)CC1CC(O)=C(c2c(OC)cc(C)cc2OC)C1=O (stereo not shown) [6-103] | 5 (Herbicidal ratio of 90% or more (almost completely withered)) | 0 (Herbicidal ratio of 5% or lower (almost no effect)) | 5 (Herbicidal ratio of 90% or more (almost completely withered)) | 5 (Herbicidal ratio of 90% or more (almost completely withered)) | 5 (Herbicidal ratio of 90% or more (almost completely withered)) | 0 (Herbicidal ratio of 5% or lower (almost no effect)) | 2 (Herbicidal ratio of 20% or higher and lower than 40%) | 0 (Herbicidal ratio of 5% or lower (almost no effect)) | 0 (Herbicidal ratio of 5% or lower (almost no effect)) | 5 (Herbicidal ratio of 90% or more (almost completely withered)) | 5 (Herbicidal ratio of 90% or more (almost completely withered)) | 5 (Herbicidal ratio of 90% or more (almost completely withered)) | 5 (Herbicidal ratio of 90% or more (almost completely withered)) | 5 (Herbicidal ratio of 90% or more (almost completely withered)) | 5 (Herbicidal ratio of 90% or more (almost completely withered)) | 5 (Herbicidal ratio of 90% or more (almost completely withered))
CON=C(C)CC1CC(O)=C(c2c(C)cc(-c3cc(F)c(F)c(F)c3)cc2C)C1=O (stereo not shown) [6-104] | 5 (Herbicidal ratio of 90% or more (almost completely withered)) | 0 (Herbicidal ratio of 5% or lower (almost no effect)) | 1 (Herbicidal ratio of 5% or higher and lower than 20%) | 5 (Herbicidal ratio of 90% or more (almost completely withered)) | 5 (Herbicidal ratio of 90% or more (almost completely withered)) | 5 (Herbicidal ratio of 90% or more (almost completely withered)) | 5 (Herbicidal ratio of 90% or more (almost completely withered)) | 5 (Herbicidal ratio of 90% or more (almost completely withered)) | 4 (Herbicidal ratio of 70% or higher and lower than 90%) | 5 (Herbicidal ratio of 90% or more (almost completely withered)) | 5 (Herbicidal ratio of 90% or more (almost completely withered)) | 5 (Herbicidal ratio of 90% or more (almost completely withered)) | 5 (Herbicidal ratio of 90% or more (almost completely withered)) | 5 (Herbicidal ratio of 90% or more (almost completely withered)) | 5 (Herbicidal ratio of 90% or more (almost completely withered)) | 5 (Herbicidal ratio of 90% or more (almost completely withered))
